Measurements as given in US10548935B2, “Composition and method for preventing, reducing, alleviating or treating idiopathic vomiting” (Mars, Incorporated, priority 2013, dated 2020).
Counter-ions that a name gives are not always drawn.

Key:
h5HT3A receptor = biological target: T1, h5HT3A receptor (Homo sapiens, UniProt P46098); test: Assays for screening 5-HT3a receptor inhibitors (FLIPR calcium assay or aequorin-assisted serotonin receptor assay; dosage response curves); format: cell-based
T1 construct: expressed in transfected cells
T1 sequence (P46098 24-478): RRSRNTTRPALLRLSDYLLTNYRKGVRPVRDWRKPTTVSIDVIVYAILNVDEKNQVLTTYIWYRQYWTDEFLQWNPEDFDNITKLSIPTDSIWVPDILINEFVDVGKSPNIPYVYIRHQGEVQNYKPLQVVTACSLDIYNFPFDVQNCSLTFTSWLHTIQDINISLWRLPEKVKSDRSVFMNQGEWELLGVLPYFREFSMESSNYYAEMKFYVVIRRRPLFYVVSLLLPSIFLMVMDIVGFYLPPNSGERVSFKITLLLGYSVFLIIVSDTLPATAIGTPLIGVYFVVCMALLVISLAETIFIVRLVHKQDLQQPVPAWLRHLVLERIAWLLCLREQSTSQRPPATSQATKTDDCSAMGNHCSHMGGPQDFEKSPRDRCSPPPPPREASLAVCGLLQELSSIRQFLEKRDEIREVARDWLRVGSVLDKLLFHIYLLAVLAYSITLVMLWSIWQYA
From the text: Various known high through-put screening assays can be used to determine the inhibitory effects of a material on the 5-HT3a receptors.
Due to activation of 5HT3 receptor following calcium and sodium influx and the subsequent rapid intracellular calcium and sodium increase, a calcium indicator (e.g., Fluo-4 AM) or a sodium dye can therefore be readily used to detect influx Ca^+2 or Na^+ signal using the Flourometric Imaging Plate Reader (FLIPR) assay to identify agonists or antagonists of 5-HT3a receptors.
The 5-HT3a FLIPR assay can specifically be conducted by the following steps. First, […] (human embryonic kidney) cells stably expressed with h5HT3A receptor are grown in 16-18 ml growth medium in a 75 cm^2 flask for 2-3 days at 37° C. in a mammalian cell culture incubator with 5% CO2 and 90% humidity. The growth medium may contain, for example, DMEM/F12 (1:1, Invitrogen 11039) supplemented with 10% FBS (fetal bovine serum), 100 μg/ml Antibiotic/Antimycotic, and 150 ug/ml G418. The cell medium is then transferred to a 50 ml tube, and the cells are washed with 10 ml PBS. Subsequently, 2 ml of 0.05% Trypsin-EDTA is added to detach cells, and the above cell medium is added back to flask to inactivate trypsin. Next, the cells are transferred back to the above 50 ml tube, which is centrifuged at 850 rpm for 3 minutes to remove medium. The cells obtained from centrifugation are then re-suspended with growth medium at 1-1.5 ml per flask cells. One vial of Fluo-4 AM (calcium indicator, 50 ug) is subsequently dissolved with 20 ul of Pluronic F-127, and 10 ul of Fluo-4 AM solution per flask cells is added (1 vial of Fluo-4 AM solution, 20 ul, is good for 2 flask of cells). The cells are then stained with Fluo-4 AM for 30 min at room temperature with gently shaking on a shaker, followed by addition of 45 ml of the assay buffer [HBSS with CaCl2 and MgCl2 (Invitrogen 14025), 20 mM HEPES, pH7.2] to wash cells once. Centrifugation is carried out once more at 850 rpm for 3 minutes to remove assay buffer. The resulting cell pellet is again re-suspended in Assay buffer (per flask cells with 18-20 ml assay buffer). Ninety microliters of cells (50K cells/well) is loaded in the 96-well plates that are pre-loaded with the compounds to be tested (10 ul of 1 mM test materials, the final concentration of the test materials will be 100 uM). The plates are placed at room temperature for 15-30 min in dark and then transferred to FLIPR-384 instrument (Molecular Devices). […] The calcium signal of the test plates is finally recorded by the FLIPR program. The average and standard deviations are calculated using Excel, and the background (buffer) is subtracted. The percentage (%) inhibition is then calculated as
[formula] A test material will be considered as having an inhibitory effect against the 5-HT3a receptor if the percentage inhibition calculated is greater than 40%.
Aequorin is a photo-protein originating from the Jellyfish Aequorea Victoria. It is initially translated as an apo-enzyme requiring the hydrophobic group coelenterazine to initiate the conversion to aequorin. Upon binding of calcium, the coelenterazine is oxidized by aequorin into coelenteramide (BFP) resulting in the emission of blue light and CO2. Therefore, it is particularly useful for visualizing or detecting influx Ca^+2 signal.
After 18-24 h of culture, the cells are detached gently by flushing with their cell culture medium. Washing with an additional 10 mLs of cell culture media will ensure that optimum number of cells is captured. The cells are then centrifuged at 150×g, counted and re-suspended at 1×10^6 cells/mL in BSA medium [DMEM/Ham's F12 (with 15 mM HEPES, L-glutamine, without phenol red) culture medium (Invitrogen, Cat. No. 11039-021)+10% protease-free BSA (Sigma Aldrich, Cat. No. A9205) in H2O with a final BSA concentration of 0.1%] in a Falcon tube. Coelenterazine is added at a final concentration of 5 μM in assay medium.

Compound	5-HT3a receptor inhibitory effect (h5HT3A receptor)	cell toxicity (Cell toxicity)
CCCCCC1C(=O)CCC1CC(=O)OC (stereo not drawn) [Methyl dihydrojasmonate]	surprisingly high	little or no
C[C@@H]1CC[C@H]2C(C)(C)[C@H]3C[C@@]12CC[C@@]3(C)O [(+)-cedrol]	surprisingly high	little or no
CCCCCCCCC(=O)NCc1ccc(O)c(OC)c1 [Nonivamide]	surprisingly high	little or no
CC(C)[C@@H]1CC[C@@H](C)C[C@H]1OCC(O)CO (stereo partly drawn) [Menthoxypropanediol]	surprisingly high	–
CCCCCC(=Cc1ccccc1)CO [Alpha-amylcinnamyl alcohol]	surprisingly high	little or no
C=C1CC[C@H](O)C/C1=C/C=C1\CCC[C@]2(C)[C@@H]([C@H](C)CCCC(C)C)CC[C@@H]12 [Cholecalciferol VD3, Cholecalciferol]	surprisingly high	–
Cc1cc2nc3c(=O)[nH]c(=O)nc-3n(C[C@H](O)[C@H](O)[C@H](O)CO)c2cc1C [Riboflavin VB2, Riboflavin]	surprisingly high	–
CC(C)=CCC[C@](C)(O)C1CC=C(C)CC1 (stereo partly drawn) [Bisabolol]	surprisingly high	little or no
O=C(/C=C/C=C/c1ccc2c(c1)OCO2)N1CCCCC1 [Piperine]	–	little or no
CCCCCCCCC1CCC(=O)O1 (stereo not drawn) [Gamma-dodecalactone]	surprisingly high	little or no
CC(C)=CCCC(C)=CCCC(C)=CC=O [Farnesal]	surprisingly high	little or no
CC1=C(CCC(=O)O)c2cc3[nH]c(cc4nc(cc5[nH]c(cc1n2)c(C)c5C(C)O)C(C)=C4C(C)O)c(C)c3CCC(=O)O (stereo not drawn) [Hematoporphyrin dihydrochloride]	–	little or no
Cc1c(O)ccc(O)c1C [2,3-dimethyl-1,4-benzenediol]	surprisingly high	little or no
CCCCCC/C=C\CCCCCCCC(=O)O [Palmitoleic acid]	surprisingly high	little or no
CC/C=C\C/C=C\C/C=C\C/C=C\C/C=C\CCCC(=O)O [Eicosapentaenoic acid]	–	little or no
OCCCCCCCCCCCCCCO [1,14-Tetradecanediol]	surprisingly high	little or no
c1ccc(CCCc2ccccn2)cc1 [Cortex pyridine, 2-(3-phenylpropyl)pyridine]	surprisingly high	little or no
CCCCCCCC1CC(C)OC1=O (stereo not drawn) [3-heptyldihydro-5-methyl-2(3H)-furanone]	surprisingly high	little or no
O=c1cc(-c2ccccc2)oc2ccccc12 [Flavone]	surprisingly high	little or no
CCCCCCCCCC1CCCC(=O)O1 (stereo not drawn) [Delta-tetradecalactone]	surprisingly high	little or no
CCCCOCc1ccc(O)c(OC)c1 [Vanillyl butyl ether]	surprisingly high	little or no
Vetiverol	surprisingly high	little or no
C=C(C)[C@@H]1CCC2=CC(=O)C[C@@H](C)[C@]2(C)C1 [Nootkatone]	surprisingly high	little or no
CCOc1ccc2c(c1)C(C)=CC(C)(C)N2 [Ethoxyquin]	surprisingly high	little or no
CCCCCCCC1CCCC(=O)O1 (stereo not drawn) [Delta-dodecalactone]	surprisingly high	little or no
CCCOC(=O)c1ccc(O)cc1 [N-propyl-4-hydroxybenzoate]	surprisingly high	–
